Experimental data: ChEMBL document CHEMBL3217471, “Prenyltransferase Inhibitors: Treating Human Ailments from Cancer to Parasitic Infections” (Medchemcomm, 2013)

Key:
[1] = target: T1, Protein farnesyltransferase (Homo sapiens, UniProt P49354+P49356); assay: Binding affinity to FTase (unknown origin)
[2] = target: Geranylgeranyl transferase type I (Homo sapiens, UniProt P49354+P53609); assay: Inhibition of human GGTase1 in human Burkitt lymphoma (Daudi) cell supernatant using [3H]geranylgeranyl
[3] = target: T1, Protein farnesyltransferase; assay: Inhibition of human recombinant FTase using [3H]farnesyldiphosphate; format: protein-complex assay
[4] = Inhibition of rat RabGGTase using [3H]GGPP by scintillation counting
[5] = species on record: Homo sapiens; assay: Selectivity ratio of IC50 for human GGTase 1 in human Burkitt lymphoma (Daudi) cell supernatant to IC50 for human recombinant FTase
[6] = Inhibition of human RabGGTase using [3H]GGPP by scintillation counting

Compound | IC50 [2] [nM] | IC50 [3] [nM] | further results
CC(C)=CCC/C(C)=C/CC/C(C)=C/CO[P@@](=O)(O)OP(=O)(O)O [FARNESYL DIPHOSPHATE] |  |  | Kd [1]: 2 nM
NC(=O)N1CCC(CC(=O)N2CCC([C@H]3c4ncc(Br)cc4CCc4cc(Cl)cc(Br)c43)CC2)CC1 [LONAFARNIB] | > 50000 |  | 
N#Cc1ccc2c(c1)CN(S(=O)(=O)c1cccs1)[C@@H](Cc1ccccc1)CN2Cc1ncc[nH]1 | > 1000 | 1.35 | 
O=C(O)C(O)(Cc1cnc2ccccn12)P(=O)(O)O (single isomer, unassigned; (+)) [(2-HYDROXY-3-IMIDAZO[1,2-A]PYRIDIN-3-YL-2-PHOSPHONOPROPIONIC ACID (ENANTIONMERS)] |  |  | IC50 [4]: 1300 nM
CC(C)C[C@H](NC(=O)c1ccc(NC[C@@H](N)CS)cc1-c1ccccc1)C(=O)O | 5 | 25 | 
O=C(NCCCn1ccnc1)[C@H]1CN([C@@H]2c3ccc(Cl)cc3CCc3cc(Br)cnc32)CCN1C(=O)NC1CCCCC1 |  | 0.4 | 
Cn1cncc1[C@@](N)(c1ccc(Cl)cc1)c1ccc2c(c1)c(-c1cccc(Cl)c1)cc(=O)n2C [TIPIFARNIB] | > 50000 |  | 
CC(C)[C@@H](CO[C@@H](Cc1ccccc1)C(=O)N[C@@H](CCS(C)(=O)=O)C(=O)O)NC[C@@H](N)CS | 50 | 1.8 | 
Cn1cncc1CN(Cc1cccc(C#N)c1)c1ccc(C#N)c(-c2cccc3ccccc23)c1 |  | 0.39 | 
N#Cc1ccc2cc1Oc1ccc3c(c1)[C@@H](CCC3)N1CC[C@@H](NCc3cncn3C2)C1=O [(1R,5R)-30-OXO-19-OXA-2,6,10,12-TETRAAZAHEXACYCLO[18.6.2.1^{2,5}.1^{14,18}.0^{8,12}.0^{23,27}]TRIACONTA-8,10,14(29),15,17,20(28),21,23(27)-OCTAENE-17-CARBONITRILE (STRUCTURAL MIX)] |  | 0.02 | 
O=C(O)C(Cl)(Cc1cccnc1)P(=O)(O)O (configuration not stated) |  |  | IC50 [4]: 16400 nM
O=C(O)C(O)(Cc1cccnc1)P(=O)(O)O (configuration not stated) |  |  | IC50 [4]: 24100 nM; IC50 [6]: 600 µM

The next lines start with results.

IC50 [2] [nM] | IC50 [3] [nM] | Compound | further results
466 | > 50000 | Cc1ccccc1S(=O)(=O)N1[C@H](C(C)(C)C)C[C@@H](C(=O)O)[C@@H]1c1ccc(Cl)cc1 | Ratio IC50 [5]: 100
9.5 | 53000 | Cc1nc[nH]c1CN1CCN(C(=O)N[C@@H](CC(C)C)C(=O)O)[C@@H](Cc2ccccc2)C1=O [GGTI-2418] | Ratio IC50 [5]: > 5000
> 99500 | > 9700 | COc1ccc(S(=O)(=O)N2Cc3cc(-c4ccc(C#N)o4)ccc3N(Cc3cncn3C)C[C@H]2Cc2ccc(OC(=O)NCc3ccccc3)cc2)cc1 | IC50 [4]: 42 nM
> 99500 | 6 | COc1ccc(S(=O)(=O)N2Cc3cc(C#N)ccc3N(Cc3cncn3C)C[C@H]2Cc2ccccc2)cc1 | IC50 [4]: 724 nM
21 | 5600 | Cc1ccccc1-c1cc(NCc2c[nH]cn2)ccc1C(=O)N[C@@H](CC(C)C)C(=O)O | Ratio IC50 [5]: > 250
50 |  | CSCC[C@H](NC(=O)c1ccc(NC[C@@H](N)CS)cc1-c1ccccc1)C(=O)O | 
